# From patent publication US11918693B2, “Ibuprofen and acetaminophen tablet” (GlaxoSmithKline Consumer Healthcare Holdings (US) LLC, priority 2019, dated 2024)
# System: pyrexia induced by intravenous reference standard endotoxin (RSE) in healthy males
# Type: in vivo, human
# Conditions: for WSTD0-2 h, Treatment difference vs. Placebo / WSTD0-4 h, Treatment difference vs. Placebo / WSTD0-6 h, Treatment difference vs. Placebo / WSTD0-8 h, Treatment difference vs. Placebo / WSTD6-8 h, Treatment difference vs. Placebo / WSTD50-110 min, Treatment difference vs. Placebo / WSTD80-110 min, Treatment difference vs. Placebo / Period post dose in which subjects' temperatures were significantly reduced relative to placebo / Headache due to RSE, subjects / Nausea due to RSE, subjects / Pyrexia, AE considered related to RSE, subjects: APAP 500 mg; for WSTD50-110 min, LSM / WSTD50-110 min, Mean / WSTD80-110 min, LSM / WSTD80-110 min, Mean: post hoc analysis; for WSTD50-110 min, LSM / WSTD50-110 min, Mean / WSTD80-110 min, LSM / WSTD80-110 min, Mean / WSTD0-2 h, Mean (SD) / WSTD0-4 h, Mean (SD) / WSTD0-6 h, Mean (SD) / WSTD6-8 h, Mean (SD) / WSTD0-8 h, Mean (SD): IBU dose 250 mg, APAP dose 500 mg; for Period post dose in which subjects' temperatures were significantly reduced relative to placebo / WSTD0-2 h, Mean (SD) / WSTD0-4 h, Mean (SD) / WSTD0-6 h, Mean (SD) / WSTD6-8 h, Mean (SD) / WSTD0-8 h, Mean (SD): single oral dose; for WSTD0-8 h, Mean (SD): primary efficacy endpoint; for Headache due to RSE, subjects / Nausea due to RSE, subjects / Pyrexia, AE considered related to RSE, subjects: study drug treatment period
# Description: This study evaluated the antipyretic efficacy, onset of effect and tolerability of a single dose of FDC IBU/APAP 250 mg/500 mg compared with placebo and each monocomponent at the same dose.
# This was a single-center, randomized, double-blind, placebo-controlled, full-factorial study in healthy males aged 18-55 years in whom pyrexia was induced by intravenous administration of a reference standard endotoxin (RSE). After RSE administration and attainment of an oral temperature ≥100.5° F. (38.1° C.), subjects were randomized 3:3:3:1 to receive a single oral dose of FDC IBU/APAP 250 mg/500 mg, APAP 500 mg, IBU 250 mg, or placebo in double-blind fashion. Oral temperature was subsequently measured every 10 minutes for the first 2 hours and then every 30 minutes until 8 hours post dose. Time-weighted sum of temperature differences from baseline to 8 hours (WSTD0-8) after study medication administration was the primary efficacy endpoint. Secondary endpoints included WSTD scores from 0-2, 0-4, 0-6, and 6-8 hours; time to return to “normal” temperature; time to rescue medication use; global drug evaluation. Safety was monitored and assessed via adverse events (AEs).
# This was a single-center, randomized, double-blind, placebo-controlled, full-factorial single-dose study in subjects in whom pyrexia was induced by intravenous (IV) administration of a reference standard endotoxin (RSE). In this standardized model, fever was induced by endotoxin (gram-negative bacterial lipopolysaccharide) derived from Escherichia coli O113, which was developed as a national biological reference standard in 1976 by the National Institute of Allergy and Infectious Diseases and the US Food and Drug Administration. The RSE used in this study was supplied by List Biological Laboratories, Inc. (Campbell, CA, USA).
# Subject eligibility was determined at a screening visit within 28 days prior to study drug treatment; eligible subjects were assigned sequential subject numbers by the investigator. Subjects were healthy males aged 18-55 years, inclusive, with a normal, stable body temperature at screening and day 0, body mass index of 17.5-37.0 kg/m^2, and total body weight ≥50 kg at screening, demonstrably adequate veins for IV catheter insertion, and who were willing and able to comply with all study procedures. […] Female subjects were not enrolled due to potential teratogenicity concerns associated with the use of the RSE.
# Subjects entered the study center on day 0 to confirm eligibility, i.e., afebrile state, defined as a mean oral temperature 97.4° F. to 98.8° F. not varying by more than 0.4° F. on 3 repeated measures over 30 minutes and still meeting inclusion/exclusion criteria. Subjects who remained eligible for the study remained in-house until after completion of all study procedures.
# Subjects received prophylactic ondansetron, 8 mg intravenously, approximately 30 minutes prior to administration of the RSE to reduce the likelihood of nausea and vomiting. Prior to RSE administration, changes to prior treatments were recorded; blood pressure and HR were measured; and a 12-lead ECG was obtained. Oral temperatures were recorded, with “normal” for each subject being the temperature recorded immediately prior to RSE administration.
# Subject eligibility Subject assessments included physical examination, vital sign measurement, ECG evaluation, and laboratory studies (hematology, serum chemistry, urinalysis). The baseline oral temperature was defined as the temperature reading obtained immediately prior to administration of study medication, after the subject had reached an RSE-induced oral temperature ≥100.5° F. (38.1° C.) that was required for randomization. After randomization and study medication administration, oral temperature was measured using a standardized electronic digital thermometer every 10 minutes for the first 2 hours, and then every 30 minutes until 8 hours post dose. Subjects were assessed for emergence of AEs at each temperature evaluation time point. […]
# [1] = first minus second treatment, IBU 250 mg
Compound,"WSTD0-2 h, Treatment difference vs. Placebo [1]","WSTD0-4 h, Treatment difference vs. Placebo [1]","WSTD0-6 h, Treatment difference vs. Placebo [1]","WSTD0-8 h, Treatment difference vs. Placebo [1]","WSTD6-8 h, Treatment difference vs. Placebo [1]","WSTD50-110 min, LSM","WSTD50-110 min, Mean","WSTD80-110 min, LSM","WSTD80-110 min, Mean","WSTD50-110 min, Treatment difference vs. Placebo (post hoc, IBU 250 mg)","WSTD80-110 min, Treatment difference vs. Placebo (post hoc, IBU 250 mg)",Period post dose in which subjects' temperatures were significantly reduced relative to placebo (IBU 250 mg) [min],"WSTD0-2 h, Mean (SD)","WSTD0-4 h, Mean (SD)","WSTD0-6 h, Mean (SD)","WSTD6-8 h, Mean (SD)","WSTD0-8 h, Mean (SD)","Headache due to RSE, subjects (IBU 250 mg) [%]","Nausea due to RSE, subjects (IBU 250 mg) [%]","Pyrexia, AE considered related to RSE, subjects (IBU 250 mg) [%]",also measured
"CC(C)Cc1ccc(C(C)C(=O)O)cc1 (stereo not shown) [IBU, 2-(4-isobutylphenyl) propionic acid]",0.51,1.26,1.83,2.23,0.51,0.103,−0.02,0.190,0.13,0.374,0.251,100 to 180,−0.19 (1.86),2.61 (3.34),6.65 (4.79),5.49 (2.26),11.09 (6.35),14.9,12.6,41.4,"Subjects who took rescue medication (8-hour treatment period, IBU 250 mg): 1 subject; Global Evaluation of study medication as a fever reducer, in words (ANCOVA analysis, 6-point scale, P<0.05): rated their treatment significantly higher than those in the placebo group; WSTD0-2 h, Treatment difference vs. APAP 500 mg [1]: −0.09; WSTD0-4 h, Treatment difference vs. APAP 500 mg [1]: −0.16; WSTD0-6 h, Treatment difference vs. APAP 500 mg [1]: −0.09; WSTD0-8 h, Treatment difference vs. APAP 500 mg [1]: −0.12; WSTD6-8 h, Treatment difference vs. APAP 500 mg [1]: −0.01; WSTD50-110 min, Treatment difference vs. APAP 500 mg (post hoc, IBU 250 mg): −0.032; WSTD80-110 min, Treatment difference vs. APAP 500 mg (post hoc, IBU 250 mg): −0.002"
"CC(=O)Nc1ccc(O)cc1 [APAP, N-(4-hydroxyphenyl)acetamide]",0.60,1.42,1.92,2.35,0.53,0.135,0.19,0.192,0.23,0.406,0.253,100 to 270,0.21 (1.73),3.41 (3.17),7.65 (4.60),5.84 (2.33),12.39 (6.28),5.7,9.2,29.9,–
